Measured values taken from article PMC8267945, “Plumbagin, a Natural Product with Potent Anticancer Activities, Binds to and Inhibits Dihydroorotase, a Key Enzyme in Pyrimidine Biosynthesis” (International Journal of Molecular Sciences, 2021).

Experiments:
[1] = biological target: T1, StDHOase (Salmonella typhimurium, UniProt P06204); assay: rapid spectrophotometric DHOase enzyme assay (hydrolysis of DHO); assay type: biochemical, Salmonella enterica serovar Typhimurium LT2; details: PLU 200 μM
T1 construct: made in house; host or cells: E. coli BL21(DE3)
Experimental: A rapid spectrophotometric assay was used to determine the activity of DHOase. Briefly, the hydrolysis of DHO was measured at 25 °C as the decrease in absorbance at 230 nm. The purified DHOase was added to a 2 mL solution containing 0.5 mM DHO and 100 mM Tris–HCl at pH 8.0 to start the reaction. The extinction coefficient of DHO was 0.92 mM^−1·cm^−1 at 230 nm. The hydrolysis of DHO was monitored using a UV/Vis spectrophotometer (Hitachi U 3300; Hitachi High-Technologies, Tokyo, Japan). A unit of activity was defined as the amount of enzyme catalyzing the hydrolysis of 1 μmol DHO/min, and the specific activity was expressed in terms of units of activity per mg of enzyme. The kinetic parameters Km and Vmax were determined from a nonlinear plot by fitting the hydrolyzing rate from individual experiments to the Michaelis–Menten equation (Enzyme Kinetics module of Sigma-Plot; Systat Software, Chicago, IL, USA).

[2] = biological target: DHPase; design: method as in PMID 32147511; details: cited from earlier work
[3] = system: Klebsiella pneumoniae; assay: bacterial growth inhibition; assay type: cell-based; details: 100 μM PLU added at 0.5 OD600, 37 °C
Experimental: (§1) Figure 8 Anticancer and antibacterial activities of PLU. (A) The trypan blue assay—4T1 cells incubated with PLU (10 μM). After 24 h, the anticancer potentiality was estimated. (B) The wound-healing assay—4T1 cells were seeded in 24-well plates. Cells were incubated with PLU (10 μM) for 24 h to allow migration. (C) Hoechst staining assay—an amount of 10 μM PLU-induced apoptosis with DNA fragmentation was observed. […] (E) Effects of PLU on cell survival, migration and proliferation, and nuclear condensation—a concentration of 10 μM PLU was effective for anti-4T1 cancer cells. (F) PLU inhibited bacterial growth—K. pneumoniae and S. enterica serovar Typhimurium LT2 cells were grown to 0.5 OD600 at 37 °C, and then PLU was added into the medium. […] PLU may inhibit the pyrimidine biosynthesis, resulting in its antibacterial activities.
(§2) Similar to cancer cells, bacterial cells are rapidly reproducible, and their growth might be suppressed by PLU. To test whether PLU could inhibit bacterial growth, we grew Klebsiella pneumoniae and S. enterica serovar Typhimurium LT2 cells to 0.5 OD600 at 37 °C, and then added PLU into the medium. […] Thus, PLU was also effective for antipathogen chemotherapies. PLU may inhibit pyrimidine biosynthesis, resulting in antibacterial activities.

[4] = system: S. enterica serovar Typhimurium LT2; assay: bacterial growth inhibition; assay type: cell-based; details: 100 μM PLU added at 0.5 OD600, 37 °C
Experimental: as §1, §2

[5] = system: tumor growth; details: cited from earlier work
[6] = biological target: T2, ScDHOase–T106A (Saccharomyces cerevisiae, UniProt P20051, T106A); assay: fluorescence quenching binding assay
T2 construct: made in house; host or cells: E. coli BL21(DE3)
Experimental: (§3) Figure 7 The data used to calculate the Kd values of various DHOases. (A) The fluorescence emission spectra of ScDHOase with PLU of different concentrations (0–200 μM; 0, 10, 20, 50, 75, 100, 125, 150, 175, and 200 μM). The decrease in intrinsic fluorescence of protein was measured at 324 nm upon excitation at 280 nm with a spectrofluorometer. […] (B) The fluorescence emission spectra of huDHOase with PLU of different concentrations (0–200 μM). (C) The fluorescence emission spectra of StDHOase with PLU of different concentrations. (D) The fluorescence emission spectra of ScDHOase–R18A with PLU of different concentrations. (E) The fluorescence emission spectra of ScDHOase–T106A with PLU of different concentrations. […] (F) An aliquot amount of PLU was added to the enzyme solution to determine the Kd. The Kd was obtained by the following equation: ΔF = ΔFmax − Kd(ΔF/[PLU]). Data points are an average of 2–3 determinations within a 10% error.
(§4) The decrease in the intrinsic fluorescence of DHOase was measured with a spectrofluorometer (Hitachi F-2700; Hitachi High-Technologies, Japan). The Kd was obtained using the following equation: ΔF = ΔFmax − Kd(ΔF/[PLU]).
(§5) The Kd value of the purified DHOase was determined using the fluorescence quenching method as previously described for DHOase, DHPase, and DnaB helicase. Briefly, an aliquot of the compound was added into the solution containing DHOase (1 μM) and 50 mM HEPES at pH 7.0. The decrease in the intrinsic fluorescence of DHOase was measured at 324 nm upon excitation at 280 nm and 25 °C with a spectrofluorometer (Hitachi F-2700; Hitachi High-Technologies, Japan). The Kd was obtained using the following equation: ΔF = ΔFmax − Kd(ΔF/[PLU]).

[7] = biological target: T3, ScDHOase (Saccharomyces cerevisiae, UniProt P20051); assay: fluorescence quenching binding assay
T3 construct: made in house; host or cells: E. coli BL21(DE3)
Experimental: as §3, §4, §5

[8] = biological target: T4, huDHOase (Homo sapiens, UniProt P27708); assay: fluorescence quenching binding assay
T4 construct: huDHOase1456-1846-NdeI-N; made in house; host or cells: E. coli BL21(DE3)
T4 sequence (P27708 1456-1846): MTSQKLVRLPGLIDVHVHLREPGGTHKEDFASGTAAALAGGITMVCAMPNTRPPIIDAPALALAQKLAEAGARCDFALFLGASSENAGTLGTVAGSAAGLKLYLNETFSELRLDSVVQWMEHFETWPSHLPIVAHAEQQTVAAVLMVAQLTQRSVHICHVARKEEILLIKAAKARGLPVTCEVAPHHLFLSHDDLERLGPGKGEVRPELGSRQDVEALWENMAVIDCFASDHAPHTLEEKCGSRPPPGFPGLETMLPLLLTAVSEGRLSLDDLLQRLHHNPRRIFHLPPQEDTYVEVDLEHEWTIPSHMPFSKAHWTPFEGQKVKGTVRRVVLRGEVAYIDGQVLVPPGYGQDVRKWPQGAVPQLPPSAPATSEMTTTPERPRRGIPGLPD
Experimental: as §3, §4, §5

[9] = biological target: T5, ScDHOase–R18A (Saccharomyces cerevisiae, UniProt P20051, R18A); assay: fluorescence quenching binding assay
T5 construct: made in house; host or cells: E. coli BL21(DE3)
Experimental: as §3, §4, §5

T3 sequence (P20051 whole entry): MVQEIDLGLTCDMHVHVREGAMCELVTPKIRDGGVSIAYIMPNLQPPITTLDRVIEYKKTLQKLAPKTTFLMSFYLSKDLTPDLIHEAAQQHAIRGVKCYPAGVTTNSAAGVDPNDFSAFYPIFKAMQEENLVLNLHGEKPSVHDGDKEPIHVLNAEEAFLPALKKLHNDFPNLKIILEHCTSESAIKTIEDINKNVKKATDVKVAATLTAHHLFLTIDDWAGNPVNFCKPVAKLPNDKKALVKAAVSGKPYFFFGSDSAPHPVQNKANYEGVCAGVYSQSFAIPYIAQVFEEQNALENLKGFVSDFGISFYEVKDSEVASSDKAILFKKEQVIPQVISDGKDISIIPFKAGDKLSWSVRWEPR
T2 sequence (P20051 whole entry T106A): as the sequence (P20051 whole entry) above, with T106A counted along it
T5 sequence (P20051 whole entry R18A): as the sequence (P20051 whole entry) above, with R18A counted along it
T1 sequence (P06204 whole entry): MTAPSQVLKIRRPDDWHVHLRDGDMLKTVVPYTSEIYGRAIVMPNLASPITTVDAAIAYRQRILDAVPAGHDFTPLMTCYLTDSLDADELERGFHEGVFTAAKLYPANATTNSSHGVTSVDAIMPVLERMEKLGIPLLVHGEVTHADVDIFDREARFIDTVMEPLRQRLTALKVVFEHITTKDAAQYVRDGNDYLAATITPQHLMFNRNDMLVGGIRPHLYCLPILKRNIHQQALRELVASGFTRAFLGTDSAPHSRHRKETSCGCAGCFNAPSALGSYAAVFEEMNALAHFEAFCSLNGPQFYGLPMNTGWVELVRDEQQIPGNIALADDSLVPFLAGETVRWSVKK

Q: Which “decrease of the activity of StDHOase” value [1] does the source give for CC1=CC(=O)c2c(O)cccc2C1=O [PLU, plumbagin] here?
A: Its value is 71%.

Q: And the IC50 [2]?
A: Its IC50 is 58 µM.

Q: And the “growth of K. pneumoniae” value [3]?
A: The value was “significantly inhibited the growth”.

Q: And the “growth of S. enterica serovar Typhimurium LT2” value [4]?
A: Its value is “significantly inhibited the growth”.

Q: And the “tumor growth in PLU-treated mice” value ([5]; animal models)?
A: Its value is “significant reduction in tumor growth”.

Q: What about the “side effects in PLU-treated mice” value ([5]; mouse, in vivo) of the same molecule?
A: The value was “no side effects”.

Q: And the Kd [6]?
A: The Kd was 70.8 ± 2.6 µM.

Q: What about the “quenching of ScDHOase–T106A” value ([6]; PLU 0–200 μM) of the same molecule?
A: The value was 90.0%.

Q: And the “λem shift of ScDHOase–T106A” value ([6]; PLU 0–200 μM)?
A: Its value is 6.5 nm.

Q: What about the “λmax of ScDHOase–T106A emission” value ([6]; PLU 0–200 μM) of the same molecule?
A: Its value is “from 328 to 321.5”.

Q: And the Kd [7]?
A: The Kd was 64.8 ± 1.6 µM.

Q: What about the “quenching of the intrinsic fluorescence of ScDHOase” value ([7]; 200 μM compound, 324 nm, excitation 280 nm) of the same molecule?
A: The value was 87.7%.

Q: And the “λmax of ScDHOase emission” value ([7]; PLU 0–200 μM)?
A: Its value is “from 324 to 317.5”.

Q: And the “λem shift of ScDHOase” value ([7]; PLU 0–200 μM, blue shift)?
A: Its value is 6.5 nm.

Q: And the “quenching of huDHOase” value ([8]; PLU 0–200 μM)?
A: Its value is 75.6%.

Q: And the “λem shift of huDHOase” value ([8]; PLU 0–200 μM)?
A: The value was 1.5 nm.

Q: What about the “λmax of huDHOase emission” value ([8]; PLU 0–200 μM) of the same molecule?
A: Its value is “from 340 to 338.5”.

Q: What about the Kd ([8]; fluorescence quenching titration curve) of the same molecule?
A: The Kd was 151 ± 4.1 µM.

Q: And the Kd [9]?
A: Its Kd is 181 ± 5.9 µM.

Q: And the “quenching of ScDHOase–R18A” value ([9]; PLU 0–200 μM)?
A: The value was 75.1%.

Q: What about the “λem shift of ScDHOase–R18A” value ([9]; PLU 0–200 μM) of the same molecule?
A: Its value is 4.0 nm.

Q: And the “λmax of ScDHOase–R18A emission” value ([9]; PLU 0–200 μM)?
A: Its value is “from 324.5 to 320.5”.
